Activity calls are given as the source filed them. The calls are words filed in the database; no cut-off is given here.
How the values were obtained:
[1] = molecular target: T1, Adenosine receptor A1 (Homo sapiens) (UniProt P30542); experiment: Increase in Bmax for binding of [3H]CCPA to human adenosine A1 receptor in CHO membranes; format: cell membranes
T1 sequence (whole entry): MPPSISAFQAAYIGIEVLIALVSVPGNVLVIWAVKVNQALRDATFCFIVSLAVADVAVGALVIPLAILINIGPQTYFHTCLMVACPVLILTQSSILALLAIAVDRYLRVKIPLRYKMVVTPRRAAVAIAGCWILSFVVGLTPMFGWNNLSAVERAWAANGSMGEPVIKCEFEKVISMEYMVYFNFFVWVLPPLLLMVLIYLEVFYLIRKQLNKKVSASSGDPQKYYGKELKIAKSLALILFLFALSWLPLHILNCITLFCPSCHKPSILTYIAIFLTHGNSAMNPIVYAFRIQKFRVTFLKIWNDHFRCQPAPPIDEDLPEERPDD

[2] = molecular target: T2, Adenosine receptor A3 (Homo sapiens) (UniProt P0DMS8); experiment: Increase in binding of [125I]AB-MECA to human adenosine A3 receptor in CHO membranes; format: cell membranes
T2 sequence (whole entry): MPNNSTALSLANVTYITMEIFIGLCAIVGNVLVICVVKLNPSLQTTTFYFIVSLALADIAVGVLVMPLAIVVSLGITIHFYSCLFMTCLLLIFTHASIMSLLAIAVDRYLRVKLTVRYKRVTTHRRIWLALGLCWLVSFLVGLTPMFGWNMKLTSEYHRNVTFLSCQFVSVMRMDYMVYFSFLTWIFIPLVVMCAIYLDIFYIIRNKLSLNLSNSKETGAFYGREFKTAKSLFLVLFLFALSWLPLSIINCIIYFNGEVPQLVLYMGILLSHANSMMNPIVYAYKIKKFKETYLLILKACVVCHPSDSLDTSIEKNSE

[3] = molecular target: T3, Adenosine receptor A1 (Rattus norvegicus) (UniProt P25099); experiment: Increase in agonist-specific binding of [3H]CCPA to adenosine A1 receptor in rat cortex; format: functional
T3 sequence (whole entry): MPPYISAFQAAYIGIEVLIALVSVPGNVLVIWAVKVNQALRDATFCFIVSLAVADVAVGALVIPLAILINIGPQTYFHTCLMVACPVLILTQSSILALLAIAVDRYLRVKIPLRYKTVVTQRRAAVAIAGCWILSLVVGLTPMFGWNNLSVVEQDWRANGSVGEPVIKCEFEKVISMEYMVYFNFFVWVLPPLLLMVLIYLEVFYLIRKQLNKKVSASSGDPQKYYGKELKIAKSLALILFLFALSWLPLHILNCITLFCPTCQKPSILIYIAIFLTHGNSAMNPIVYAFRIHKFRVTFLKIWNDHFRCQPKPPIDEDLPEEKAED

[4] = molecular target: Adenosine receptor A2a (Homo sapiens) (UniProt P29274); experiment: Increase in binding of [3H]CGS 21680 to human adenosine A2A receptor in CHO membranes; format: cell membranes
[5] = molecular target: T1, Adenosine receptor A1 (Homo sapiens); experiment: Increase in Bmax for binding of [3H]CCPA to human adenosine A1 receptor in human brain membrane; format: cell membranes
[6] = molecular target: T1, Adenosine receptor A1 (Homo sapiens); experiment: Binding density to adenosine A1 receptor in CHO membranes; format: cell membranes; settings: tested as the 3H-labelled form
[7] = molecular target: T1, Adenosine receptor A1 (Homo sapiens); experiment: Increase in agonist-specific binding of [3H]CCPA to human adenosine A1 receptor in CHO membranes; format: functional, cell membranes
[8] = molecular target: T3, Adenosine receptor A1 (Rattus norvegicus); experiment: Increase in Bmax for binding of [3H]CCPA to adenosine A1 receptor in rat cortex
[9] = molecular target: T1, Adenosine receptor A1 (Homo sapiens); experiment: Activity measured by decrease in cAMP content employing CHO cells expressing human A1 receptor at 10 uM; format: functional, cell-based; design: scale not given: the % may be the effect or the level left
[10] = molecular target: T1, Adenosine receptor A1 (Homo sapiens); experiment: Increase in agonist-specific binding of [3H]CCPA to human adenosine A1 receptor in human brain membranes; format: functional, cell membranes; settings: Membrane

Sequence of Adenosine receptor A2a (Homo sapiens) (P29274 whole entry): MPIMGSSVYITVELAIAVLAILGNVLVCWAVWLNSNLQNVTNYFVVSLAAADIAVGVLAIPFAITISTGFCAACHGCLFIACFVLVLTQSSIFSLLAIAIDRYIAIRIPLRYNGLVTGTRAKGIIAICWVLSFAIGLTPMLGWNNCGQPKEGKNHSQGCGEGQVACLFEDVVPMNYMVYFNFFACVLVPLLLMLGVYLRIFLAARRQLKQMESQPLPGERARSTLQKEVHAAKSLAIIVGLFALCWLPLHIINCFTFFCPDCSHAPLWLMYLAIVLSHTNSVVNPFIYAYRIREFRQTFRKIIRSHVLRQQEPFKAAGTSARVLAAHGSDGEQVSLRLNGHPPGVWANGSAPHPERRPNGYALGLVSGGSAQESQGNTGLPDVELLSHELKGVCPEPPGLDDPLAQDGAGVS

Activity [1]: 65% | Activity [2]: inactive | Activity [3]: 15% | Activity [4]: inactive | Activity [5]: 23% | Bmax [6]: 76.5 pmol/mg | Activity [7]: 51% | Activity [8]: 15% | Activity [9]: 55% | Activity [10]: 22%
Structure (SMILES): Nc1sc2c(c1C(=O)c1ccc(Cl)cc1)CCCC2
